From PMC4356144, “The kinase LYK5 is a major chitin receptor in Arabidopsis and forms a chitin-induced complex with related kinase CERK1” (eLife, 2014)

Assays:
[1] = molecular target: T1, AtLYK5 (full-length, HA-tagged) (Arabidopsis thaliana, UniProt O22808); experiment: competition of chitin magnetic bead pull-down, anti-HA immunoblot; format: biochemical; details: protoplasts treated with 10 µM oligomer for 15 min before harvest
T1 construct: gene LYK5; full-length cDNA, HA tag, 35S promoter, Arabidopsis Col-0 protoplasts
T1 sequence (O22808 27-664): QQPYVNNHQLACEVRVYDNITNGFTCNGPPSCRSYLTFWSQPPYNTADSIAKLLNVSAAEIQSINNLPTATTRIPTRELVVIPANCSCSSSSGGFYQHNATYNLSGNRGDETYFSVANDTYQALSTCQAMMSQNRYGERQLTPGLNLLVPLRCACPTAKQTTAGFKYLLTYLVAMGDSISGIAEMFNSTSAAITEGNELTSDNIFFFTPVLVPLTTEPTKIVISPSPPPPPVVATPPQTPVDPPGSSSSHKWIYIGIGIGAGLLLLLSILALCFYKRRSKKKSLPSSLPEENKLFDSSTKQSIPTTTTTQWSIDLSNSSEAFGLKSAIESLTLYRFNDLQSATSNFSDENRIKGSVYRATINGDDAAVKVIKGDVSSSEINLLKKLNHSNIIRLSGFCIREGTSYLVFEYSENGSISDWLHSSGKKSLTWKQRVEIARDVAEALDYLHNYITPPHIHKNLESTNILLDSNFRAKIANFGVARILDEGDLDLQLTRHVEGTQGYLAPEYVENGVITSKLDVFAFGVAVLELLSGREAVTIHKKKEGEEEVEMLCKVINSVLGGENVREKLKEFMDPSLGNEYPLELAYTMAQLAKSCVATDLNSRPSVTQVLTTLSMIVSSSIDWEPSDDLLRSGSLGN

[2] = molecular target: T2, AtLYK4 (full-length, HA-tagged) (Arabidopsis thaliana, UniProt O64825); experiment: as above; format: biochemical; details: protoplasts treated with 10 µM oligomer for 15 min before harvest
T2 construct: gene LYK4; full-length cDNA, HA tag, 35S promoter, Arabidopsis Col-0 protoplasts
T2 sequence (O64825 23-612): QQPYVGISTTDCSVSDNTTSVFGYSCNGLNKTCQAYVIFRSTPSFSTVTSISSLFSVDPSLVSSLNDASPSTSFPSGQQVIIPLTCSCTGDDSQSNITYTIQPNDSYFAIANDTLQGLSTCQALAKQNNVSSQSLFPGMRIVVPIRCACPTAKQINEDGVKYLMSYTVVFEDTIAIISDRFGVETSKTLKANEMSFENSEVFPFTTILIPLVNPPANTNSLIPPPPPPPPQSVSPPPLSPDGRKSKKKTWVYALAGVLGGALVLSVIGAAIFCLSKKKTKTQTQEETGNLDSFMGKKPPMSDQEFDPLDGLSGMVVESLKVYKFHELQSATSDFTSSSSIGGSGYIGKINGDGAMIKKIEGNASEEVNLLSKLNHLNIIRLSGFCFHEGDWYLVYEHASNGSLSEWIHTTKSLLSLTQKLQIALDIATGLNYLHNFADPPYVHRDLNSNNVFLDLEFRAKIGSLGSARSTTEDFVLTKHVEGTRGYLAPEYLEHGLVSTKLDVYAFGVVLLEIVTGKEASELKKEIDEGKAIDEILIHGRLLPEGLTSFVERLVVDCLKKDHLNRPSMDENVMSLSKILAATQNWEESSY

[3] = molecular target: T3, wheat germ agglutinin (WGA); experiment: isothermal titration calorimetry; format: binding; details: 10 mM HEPES pH 7.5, 100 mM NaCl, 25°C
T3 construct: gene WGA1

AtCERK1 (ectodomain) = molecular target: T4, AtCERK1 (ectodomain) (Arabidopsis thaliana, UniProt A8R7E6); experiment: isothermal titration calorimetry; format: binding; details: 10 mM HEPES pH 7.5, 100 mM NaCl, 25°C
T4 construct: gene CERK1; ectodomain 24-231 aa, pMAL-c2G (MBP fusion), amylose resin purified, E. coli
T4 sequence (A8R7E6 24-231): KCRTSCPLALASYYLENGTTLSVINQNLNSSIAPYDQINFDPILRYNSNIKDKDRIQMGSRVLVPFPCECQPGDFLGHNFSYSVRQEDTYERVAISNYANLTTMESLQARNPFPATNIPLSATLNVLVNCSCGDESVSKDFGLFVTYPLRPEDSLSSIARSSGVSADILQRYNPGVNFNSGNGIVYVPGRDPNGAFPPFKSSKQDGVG

AtLYK5 (ectodomain) = molecular target: T5, AtLYK5 (ectodomain) (Arabidopsis thaliana, UniProt O22808); experiment: isothermal titration calorimetry; format: binding; details: 10 mM HEPES pH 7.5, 100 mM NaCl, 25°C
T5 construct: gene LYK5; ectodomain 27-278 aa, E. coli BL21, pMCSG73; thrombin site before His tag, thrombin-cleaved, then Strep-Tactin purified
T5 sequence (O22808 27-278): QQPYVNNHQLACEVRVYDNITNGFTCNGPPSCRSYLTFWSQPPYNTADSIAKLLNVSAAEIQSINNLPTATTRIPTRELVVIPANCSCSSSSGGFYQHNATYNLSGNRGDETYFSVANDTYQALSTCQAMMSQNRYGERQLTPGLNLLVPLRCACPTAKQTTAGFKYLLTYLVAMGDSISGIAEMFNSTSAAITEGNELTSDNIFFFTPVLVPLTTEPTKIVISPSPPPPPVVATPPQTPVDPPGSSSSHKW

AtCERK1 kinase domain = molecular target: T6, AtCERK1 kinase domain (Arabidopsis thaliana, UniProt A8R7E6); experiment: in vitro autophosphorylation, […] autoradiography; format: biochemical; details: 50 mM Tris pH 7.6, 50 mM KCl, 10 mM MnCl2, 10 mM MgCl2, room temperature; labelled compound
T6 construct: gene CERK1; intracellular kinase domain 255-617 aa, N-terminal GST, pGEX 5X-1, E. coli BL21 (DE3)
T6 sequence (A8R7E6 255-617): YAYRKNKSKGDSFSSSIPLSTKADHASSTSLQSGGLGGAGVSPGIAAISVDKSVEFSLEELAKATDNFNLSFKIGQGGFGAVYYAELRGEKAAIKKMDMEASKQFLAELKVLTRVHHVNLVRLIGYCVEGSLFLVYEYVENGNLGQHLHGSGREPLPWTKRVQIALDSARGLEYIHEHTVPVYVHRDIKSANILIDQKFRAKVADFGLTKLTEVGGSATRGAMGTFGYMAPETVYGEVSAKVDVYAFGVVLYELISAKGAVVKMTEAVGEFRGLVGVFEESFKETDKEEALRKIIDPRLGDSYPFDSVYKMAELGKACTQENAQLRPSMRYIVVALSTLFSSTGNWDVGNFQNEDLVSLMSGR

[4] = molecular target: the molecule itself; experiment: SDS-PAGE without reducing agent and immunoblot; crude protein of transgenic Arabidopsis expressing AtLYK5-HA in Atlyk5-2, before or 15 min after 1 µM chitooctaose, boiled 5 min without DTT; anti-HA blot

CC(=O)N[C@H]1[C@H](O[C@H]2[C@H](O)[C@@H](NC(C)=O)[C@H](O[C@H]3[C@H](O)[C@@H](NC(C)=O)[C@H](O[C@H]4[C@H](O)[C@@H](NC(C)=O)C(O)O[C@@H]4CO)O[C@@H]3CO)O[C@@H]2CO)O[C@H](CO)[C@@H](O[C@@H]2O[C@H](CO)[C@@H](O[C@@H]3O[C@H](CO)[C@@H](O[C@@H]4O[C@H](CO)[C@@H](O)[C@H](O)[C@H]4NC(C)=O)[C@H](O)[C@H]3NC(C)=O)[C@H](O)[C@H]2NC(C)=O)[C@@H]1O (some centres unmarked) [7mer, chitoheptaose]
competition of chitin magnetic bead pull-down, anti-HA immunoblot [1]: The binding with AtLYK5 was strongly inhibited by chitoheptaose and chitooctaose

CC(=O)N[C@H]1[C@H](O[C@H]2[C@H](O)[C@@H](NC(C)=O)[C@H](O[C@H]3[C@H](O)[C@@H](NC(C)=O)[C@H](O[C@H]4[C@H](O)[C@@H](NC(C)=O)C(O)O[C@@H]4CO)O[C@@H]3CO)O[C@@H]2CO)O[C@H](CO)[C@@H](O[C@@H]2O[C@H](CO)[C@@H](O[C@@H]3O[C@H](CO)[C@@H](O[C@@H]4O[C@H](CO)[C@@H](O[C@@H]5O[C@H](CO)[C@@H](O)[C@H](O)[C@H]5NC(C)=O)[C@H](O)[C@H]4NC(C)=O)[C@H](O)[C@H]3NC(C)=O)[C@H](O)[C@H]2NC(C)=O)[C@@H]1O (some centres unmarked) [8mer, chitooctaose]
competition of chitin magnetic bead pull-down, anti-HA immunoblot [2]: the binding with AtCERK1 or AtLYK4 was only slightly reduced by the same competitors
Kd [3]: 1600 nM
competition of chitin magnetic bead pull-down, anti-HA immunoblot [1]: The binding with AtLYK5 was strongly inhibited by chitoheptaose and chitooctaose
Kd (AtCERK1 (ectodomain)): 455000 nM
Kd (AtLYK5 (ectodomain)): 1720 nM

Nc1ncnc2c1ncn2[C@@H]1O[C@H](COP(=O)(O)OP(=O)(O)OP(=O)(O)O)[C@@H](O)[C@H]1O [ATP]
in vitro autophosphorylation, 32P autoradiography (AtCERK1 kinase domain): the AtCERK1 kinase domain showed strong kinase activity as previously reported

B1: AtLYK5-HA (full length AtLYK5 under its native promoter in Atlyk5-2 mutant plants) (receptor, Arabidopsis thaliana, UniProt O22808 27-664, looked up)
chain: T1 sequence (O22808 27-664)
notes: AtLYK5 (At2g33580), Arabidopsis thaliana; genomic fragment with the 1.8 kb promoter and the coding region up to the stop codon, in pGWB13; also called wild-type AtLYK5; source: transgenic Arabidopsis (Atlyk5-2 background, native promoter), in crude extract or lysate
stoichiometry N [4]: 2
